# Columns and labels:
# SLC22A15 = target: T1, SLC22A15 (Homo sapiens, UniProt Q8IZD6); assay: Uptake ratio screen, SLC22A15-overexpressing HEK293 over empty vector cells; type: cell-based; settings: 2.5 μM (nicotine 10 μM), 2 min
# T1 construct: by amplifying the entire gene-of-interest within the HEK293 genome via a long-range PCR
# Description: (§1) Typically discussed substrates of the proton organic-cation antiporter ([14]) are highlighted in dark green in Figure 1.
# (§2) In preparation for transport experiments, 24-well plates were pre-coated with poly-D-lysine (Sigma-Aldrich) and 300,000 cells were plated per well and incubated for 48 h. Firstly, the 24-well plate was placed on a heating plate at 37 °C, and the cells were washed with 37 °C HBSS^+ buffer (Hank’s balanced salt solution supplemented with 10 mM Hepes and adjusted to pH 7.4; Thermo Fisher Scientific). The substance-of-interest, which was diluted in 37 °C HBSS^+ to a desired concentration, was added to the cells for exactly 2 min. […] The uptake was stopped with ice-cold HBSS^+, and the 24-well plate was removed from the heating plate. The cells were washed twice with the cold HBSS^+ before they were lysed for 15 min with 80% (v/v) acetonitrile containing the respective internal standard for mass spectrometry. For variations in seeded cell numbers between the cell lines, several wells were lysed in RIPA buffer and used for total protein quantification using a bicinchoninic assay ([74]) and bovine serum albumin as calibration.
# (§3) The intracellular drug concentrations after transport experiments were analyzed by high-performance liquid chromatography coupled to tandem mass spectrometry analysis. The HPLC consisted of a Shimadzu Nexera HPLC System with a SIL-30AC autosampler, a LC-30AD pump, a CTO-20AC column oven, and a CBM-20A controller (Shimadzu). The reverse-phase chromatography of compounds was accomplished with a Brownlee SPP RP-Amide column with 4.6 × 100 mm inner dimensions, a particle size of 2.7 μm, and a preceding Phenomenex C-18 guard column. The mobile phase was composed of an organic additive with acetonitrile:methanol 6:1 (v/v) in total concentrations between 3% and 50% (v/v) and 0.1% (v/v) formic acid in the aqueous component of the eluent. During separation, the column oven was held at 40 °C and the mobile phase was maintained at a flow rate of 300 or 400 μl/min. After separation, the detection of substances was performed with an API 4000 tandem mass spectrometer (AB SCIEX, https://sciex.com/support/software-support/software-downloads), followed by quantification of results with the Analyst software (AB SCIEX, version 1.6.2). The composition of chromatographic conditions, as well as detailed mass spectrometric detection parameters, are listed in Table S5.
# (§4) Transport-mediated net uptake was determined as fold-increase of transporter-overexpressing cells over empty vector–transfected control cells.
# SLC35E2A [1] = target: T2, SLC35E2A (Homo sapiens, UniProt P0CK97); assay: Uptake ratio screen, SLC35E2A-overexpressing HEK293 over empty vector cells; type: cell-based; set-up: by amplifying the entire gene-of-interest within the HEK293 genome via a long-range PCR; settings: 2.5 μM, 2 min
# Description: as §1, §2
# (§5) The intracellular drug concentrations after transport experiments were analyzed by high-performance liquid chromatography coupled to tandem mass spectrometry analysis. The HPLC consisted of a Shimadzu Nexera HPLC System with a SIL-30AC autosampler, a LC-30AD pump, a CTO-20AC column oven, and a CBM-20A controller (Shimadzu). The reverse-phase chromatography of compounds was accomplished with a Brownlee SPP RP-Amide column with 4.6 × 100 mm inner dimensions, a particle size of 2.7 μm, and a preceding Phenomenex C-18 guard column. […] After separation, the detection of substances was performed with an API 4000 tandem mass spectrometer (AB SCIEX, https://sciex.com/support/software-support/software-downloads), followed by quantification of results with the Analyst software (AB SCIEX, version 1.6.2). […]
# as §4
# SLC35E2A [2] = target: T2, SLC35E2A
# SLC35G3 [3] = target: T3, SLC35G3 (Homo sapiens, UniProt Q8N808); assay: Uptake ratio screen, SLC35G3-overexpressing HEK293 over empty vector cells; type: cell-based; set-up: by amplifying the entire gene-of-interest within the HEK293 genome via a long-range PCR; settings: 2.5 μM substrate, 2 min, HEK293
# SLC35F3 = SLC35F3 (Homo sapiens, UniProt Q8IY50); settings: 2.5 μM, 2 min, HEK293
# Description: as §1, §2, §3, §4
# SLC35F4 = target: T4, SLC35F4 (Homo sapiens, UniProt A4IF30); assay: Uptake ratio screen, SLC35F4-overexpressing HEK293 over empty vector cells; type: cell-based; set-up: by amplifying the entire gene-of-interest within the HEK293 genome via a long-range PCR; settings: 2.5 μM, 2 min
# T4 sequence (A4IF30 1-521): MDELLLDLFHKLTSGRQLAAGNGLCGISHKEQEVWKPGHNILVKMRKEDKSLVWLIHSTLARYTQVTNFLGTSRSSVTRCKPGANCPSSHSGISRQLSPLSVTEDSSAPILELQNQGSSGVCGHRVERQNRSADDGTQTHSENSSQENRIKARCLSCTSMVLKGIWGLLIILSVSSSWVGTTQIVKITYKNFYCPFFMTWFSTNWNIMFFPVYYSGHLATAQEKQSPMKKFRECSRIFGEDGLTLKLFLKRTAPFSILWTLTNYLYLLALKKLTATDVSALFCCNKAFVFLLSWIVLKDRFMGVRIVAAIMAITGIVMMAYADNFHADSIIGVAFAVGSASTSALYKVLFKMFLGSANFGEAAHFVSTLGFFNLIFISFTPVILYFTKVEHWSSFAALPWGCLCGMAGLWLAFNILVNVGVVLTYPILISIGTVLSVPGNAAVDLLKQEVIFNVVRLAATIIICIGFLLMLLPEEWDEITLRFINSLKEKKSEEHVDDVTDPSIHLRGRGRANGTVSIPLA
# Description: as §1, §2, §3, §4
# SLC38A10 [4] = target: T5, SLC38A10 (Homo sapiens, UniProt Q9HBR0); assay: Uptake ratio screen, SLC38A10-overexpressing HEK293 over empty vector cells; type: cell-based; set-up: by amplifying the entire gene-of-interest within the HEK293 genome via a long-range PCR; settings: 2.5 μM, 2 min
# Description: as §1
# In preparation for transport experiments, 24-well plates were pre-coated with poly-D-lysine (Sigma-Aldrich) and 300,000 cells were plated per well and incubated for 48 h. Firstly, the 24-well plate was placed on a heating plate at 37 °C, and the cells were washed with 37 °C HBSS^+ buffer (Hank’s balanced salt solution supplemented with 10 mM Hepes and adjusted to pH 7.4; Thermo Fisher Scientific). The substance-of-interest, which was diluted in 37 °C HBSS^+ to a desired concentration, was added to the cells for exactly 2 min. […] For variations in seeded cell numbers between the cell lines, several wells were lysed in RIPA buffer and used for total protein quantification using a bicinchoninic assay ([74]) and bovine serum albumin as calibration.
# The intracellular drug concentrations after transport experiments were analyzed by high-performance liquid chromatography coupled to tandem mass spectrometry analysis. […] After separation, the detection of substances was performed with an API 4000 tandem mass spectrometer (AB SCIEX, https://sciex.com/support/software-support/software-downloads), followed by quantification of results with the Analyst software (AB SCIEX, version 1.6.2). […]
# SLC35E4 = target: T6, SLC35E4 (Homo sapiens, UniProt Q6ICL7); assay: Uptake ratio screen, SLC35E4-overexpressing HEK293 over empty vector cells; type: cell-based; set-up: by amplifying the entire gene-of-interest within the HEK293 genome via a long-range PCR; settings: 2.5 μM, 2 min
# T6 sequence (Q6ICL7 1-350): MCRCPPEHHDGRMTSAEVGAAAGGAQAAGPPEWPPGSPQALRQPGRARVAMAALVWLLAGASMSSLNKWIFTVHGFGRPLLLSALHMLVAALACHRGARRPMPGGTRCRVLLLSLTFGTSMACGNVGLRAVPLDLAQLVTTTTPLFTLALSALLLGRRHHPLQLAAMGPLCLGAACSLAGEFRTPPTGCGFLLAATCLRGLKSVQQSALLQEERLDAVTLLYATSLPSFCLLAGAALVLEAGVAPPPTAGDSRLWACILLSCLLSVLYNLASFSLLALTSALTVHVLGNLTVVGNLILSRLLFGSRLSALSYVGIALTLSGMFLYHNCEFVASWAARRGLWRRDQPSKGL
# Description: as §1, §2, §5, §4
# SLC38A10 [5] = target: T5, SLC38A10
# SLC35F2 = target: T7, SLC35F2 (Homo sapiens, UniProt Q8IXU6)
# T7 sequence (Q8IXU6 1-374): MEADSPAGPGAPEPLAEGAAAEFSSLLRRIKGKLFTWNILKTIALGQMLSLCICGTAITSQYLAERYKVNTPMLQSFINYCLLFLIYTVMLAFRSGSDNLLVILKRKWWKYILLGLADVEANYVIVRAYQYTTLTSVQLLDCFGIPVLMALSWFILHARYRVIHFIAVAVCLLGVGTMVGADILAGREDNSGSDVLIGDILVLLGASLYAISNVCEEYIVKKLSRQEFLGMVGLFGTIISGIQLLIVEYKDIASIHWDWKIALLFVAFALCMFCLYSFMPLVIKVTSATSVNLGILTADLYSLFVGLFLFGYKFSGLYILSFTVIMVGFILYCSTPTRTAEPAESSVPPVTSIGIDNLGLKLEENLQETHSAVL
# SLC35G3 [6] = target: T3, SLC35G3
# T3 sequence (Q8N808 whole entry): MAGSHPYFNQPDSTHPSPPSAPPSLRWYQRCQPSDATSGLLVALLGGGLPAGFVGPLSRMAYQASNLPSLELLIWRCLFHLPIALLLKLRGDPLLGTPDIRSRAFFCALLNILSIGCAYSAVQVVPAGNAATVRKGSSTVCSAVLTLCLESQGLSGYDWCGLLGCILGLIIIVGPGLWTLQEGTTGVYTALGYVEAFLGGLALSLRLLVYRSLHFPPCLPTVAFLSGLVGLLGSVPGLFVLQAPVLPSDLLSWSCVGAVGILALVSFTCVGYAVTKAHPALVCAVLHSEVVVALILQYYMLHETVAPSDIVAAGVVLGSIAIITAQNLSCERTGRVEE
# T1 sequence (Q8IZD6 whole entry): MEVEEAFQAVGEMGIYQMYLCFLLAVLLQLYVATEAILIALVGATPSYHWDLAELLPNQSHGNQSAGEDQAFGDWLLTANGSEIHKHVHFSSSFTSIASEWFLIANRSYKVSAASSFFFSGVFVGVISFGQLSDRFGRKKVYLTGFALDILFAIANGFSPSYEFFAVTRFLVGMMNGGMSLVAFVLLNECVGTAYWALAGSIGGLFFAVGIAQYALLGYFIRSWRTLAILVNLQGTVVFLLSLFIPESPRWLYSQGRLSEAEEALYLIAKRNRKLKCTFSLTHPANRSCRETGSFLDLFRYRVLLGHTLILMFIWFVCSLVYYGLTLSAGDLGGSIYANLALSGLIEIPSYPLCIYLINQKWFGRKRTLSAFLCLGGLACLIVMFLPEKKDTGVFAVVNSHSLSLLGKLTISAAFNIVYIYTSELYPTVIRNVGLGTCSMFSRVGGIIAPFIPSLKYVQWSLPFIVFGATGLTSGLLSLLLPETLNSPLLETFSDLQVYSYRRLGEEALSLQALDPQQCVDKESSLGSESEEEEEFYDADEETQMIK
# T2 sequence (P0CK97 whole entry): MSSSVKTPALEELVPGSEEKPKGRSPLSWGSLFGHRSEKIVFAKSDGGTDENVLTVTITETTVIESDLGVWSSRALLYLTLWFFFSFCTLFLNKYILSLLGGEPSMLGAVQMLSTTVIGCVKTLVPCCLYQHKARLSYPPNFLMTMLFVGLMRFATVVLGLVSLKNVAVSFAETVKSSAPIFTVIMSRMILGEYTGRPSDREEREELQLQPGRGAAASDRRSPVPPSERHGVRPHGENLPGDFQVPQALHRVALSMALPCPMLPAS
# T5 sequence (Q9HBR0 whole entry): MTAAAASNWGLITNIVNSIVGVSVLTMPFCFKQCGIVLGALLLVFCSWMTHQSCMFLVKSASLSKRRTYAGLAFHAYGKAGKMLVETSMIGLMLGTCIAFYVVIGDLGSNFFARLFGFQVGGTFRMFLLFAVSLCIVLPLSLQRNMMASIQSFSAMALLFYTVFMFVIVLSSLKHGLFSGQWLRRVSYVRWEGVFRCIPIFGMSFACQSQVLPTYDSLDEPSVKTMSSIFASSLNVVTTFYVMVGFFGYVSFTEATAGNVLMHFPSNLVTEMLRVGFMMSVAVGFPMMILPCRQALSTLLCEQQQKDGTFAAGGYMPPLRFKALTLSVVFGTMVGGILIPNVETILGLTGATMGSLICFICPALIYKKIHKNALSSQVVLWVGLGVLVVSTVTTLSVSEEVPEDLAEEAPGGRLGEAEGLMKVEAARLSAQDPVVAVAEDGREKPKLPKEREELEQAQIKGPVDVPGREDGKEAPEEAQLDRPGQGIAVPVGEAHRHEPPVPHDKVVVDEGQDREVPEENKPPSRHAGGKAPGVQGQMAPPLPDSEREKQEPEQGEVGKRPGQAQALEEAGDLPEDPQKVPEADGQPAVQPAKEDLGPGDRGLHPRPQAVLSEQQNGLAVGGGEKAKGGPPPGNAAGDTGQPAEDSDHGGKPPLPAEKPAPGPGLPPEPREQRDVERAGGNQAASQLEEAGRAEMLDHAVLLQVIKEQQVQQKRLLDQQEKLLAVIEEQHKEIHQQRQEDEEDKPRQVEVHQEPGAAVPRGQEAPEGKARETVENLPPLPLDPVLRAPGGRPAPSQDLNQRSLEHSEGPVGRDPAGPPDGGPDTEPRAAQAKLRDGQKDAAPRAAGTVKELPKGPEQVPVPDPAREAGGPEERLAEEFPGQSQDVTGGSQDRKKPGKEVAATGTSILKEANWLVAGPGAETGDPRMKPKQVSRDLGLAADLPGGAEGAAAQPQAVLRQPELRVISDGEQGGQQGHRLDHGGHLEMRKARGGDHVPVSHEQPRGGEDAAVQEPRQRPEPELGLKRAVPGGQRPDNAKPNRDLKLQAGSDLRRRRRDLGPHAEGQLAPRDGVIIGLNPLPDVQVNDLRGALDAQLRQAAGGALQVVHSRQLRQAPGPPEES
# Sequence of SLC35F3 (Q8IY50 whole entry): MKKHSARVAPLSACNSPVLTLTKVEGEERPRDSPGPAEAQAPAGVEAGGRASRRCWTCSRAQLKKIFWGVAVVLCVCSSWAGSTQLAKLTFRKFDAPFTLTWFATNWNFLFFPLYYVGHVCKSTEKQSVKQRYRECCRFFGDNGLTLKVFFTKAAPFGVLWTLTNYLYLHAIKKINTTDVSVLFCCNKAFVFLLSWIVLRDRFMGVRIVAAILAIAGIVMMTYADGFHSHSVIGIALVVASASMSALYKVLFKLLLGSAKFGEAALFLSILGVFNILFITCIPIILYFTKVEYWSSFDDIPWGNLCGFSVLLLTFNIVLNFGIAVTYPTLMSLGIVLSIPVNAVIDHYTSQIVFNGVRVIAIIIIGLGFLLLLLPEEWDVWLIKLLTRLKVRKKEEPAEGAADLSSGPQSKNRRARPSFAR
compound,measurement,setting,value
c1cnc2cc3c(cc2n1)[C@@H]1CNC[C@H]3C1 [Varenicline],Uptake by SLC22A15 (in words),SLC22A15,significantly increased the uptake
same,Uptake by SLC35E2A (in words),SLC35E2A [1],relatively high activity
same,Clint (±SEM),SLC35E2A [2],1.79 (±1.06) μl × mg protein^-1 × min^-1
same,"Uptake data for SLC35G3, mean value (fold-increase over empty vector control)",SLC35G3 [3],1.60
Cc1ncc(C[n+]2csc(CCO)c2C)c(N)n1 [Thiamine],Uptake by SLC35F3 (in words),SLC35F3,no enhanced thiamine uptake
same,"Uptake data for SLC35G3, mean value (fold-increase over empty vector control)",SLC35G3 [3],0.90
same,Uptake by SLC35F4 (in words),SLC35F4,no enhanced thiamine transport
N[C@@H](CCC(=O)O)C(=O)O [glutamic acid],Uptake by SLC38A10 compared with empty-vector-transfected cells (factor),SLC38A10 [4],1.4
same,Uptake by SLC35E4 (in words),SLC35E4,minor
Clc1cccc(Cl)c1N=C1NCCN1 [Clonidine],Uptake by SLC22A15 (in words),SLC22A15,significantly increased the uptake
same,Clint (±SEM),SLC38A10 [5],2.64 (±3.0) μl × mg protein^-1 × min^-1
same,Vmax (±SEM),"SLC35F2; SLC35F2, HEK293, net uptake over empty vector cells",304 (±57.7) pmol × mg protein^-1 × min^-1
same,Clint (±SEM),SLC35F2; human,2.06 (±1.62) μl × mg protein^-1 × min^-1
same,Km,"SLC35F2; read-out: KM (±SEM), SLC35F2, HEK293, net uptake over empty vector cells",147 µM
same,"Uptake data for SLC35G3, mean value (fold-increase over empty vector control)",SLC35G3 [3],1.54
same,Clint (±SEM),SLC35G3 [6],4.85 (±3.17) μl × mg protein^-1 × min^-1
